Measurements published in patent US8158657B2, “Heterocycles substituted pyridine derivatives and antifungal agent containing thereof” (Eisai R&D Management Co., Ltd., priority 2005, dated 2012).
In brackets after ≈: the same amount, converted by molar mass.

Assays:
[1] = tested on: A. fumigatus Tsukuba strain; assay: Anti-Aspergillus activity, MIC measurement; format: cell-based; conditions: RPMI1640, 42-48 hours at 35° C., visual inspection, read-out: Anti-Aspergillus Activity (minimum inhibitory concentration, MIC)
Description: (§1) For the C. albicans CAF2-1 strain, a fungal suspension from a standing culture for 48 hours at 30° C. in a Sabouraud dextrose liquid culture medium (SDB) was diluted with RPMI1640 medium to adjust a fungal suspension of 1.2×10^3 cells/mL. For the A. fumigatus Tsukuba strain, −80° C. stored strain was diluted with RPMI1640 medium to adjust to a fungal suspension of 4.5×10^3 cells/mL.
(§2) Using a U-bottomed 96 well plate, 8 samples/plate (A to H) of sample dilution solutions were prepared. On the 2nd to 12th rows were dispensed 10 μL of dimethyl sulfoxide solution. Weighted sample was dissolved in dimethyl sulfoxide to prepare a 2.5 mg/mL solution, 20 μL of this solution was added to the first row of the prepared plate, and 12 steps of two-fold step dilutions (10 μL of solution+10 μL of dimethyl sulfoxide solution) were performed on the plate. This sample dilution solution was dispensed in the amount of 1 μL to a flat-bottomed 96 well plate for MIC measurement to prepare a sample dilution plate.
(§3) The fungal suspension prepared in (1) was used in the amount of 99 μL/well to inoculate the flat-bottomed 96 well plate containing 1 μL/well of the test compound dilution prepared in (2), and a standing culture was carried out aerobically for 42-48 hours at 35° C.

[2] = tested on: C. albicans CAF2-1 strain; assay: Anti-Candida activity, MIC measurement; format: cell-based; conditions: CAF21STRAIN, C. albicans CAF2-1, RPMI1640, 42-48 hours at 35° C., visual inspection, read-out: Anti-Candida Activity (minimum inhibitory concentration, MIC)
Description: as §1, §2, §3

Compound | MIC [1] [µg/mL] | MIC [2] [µg/mL]
Nc1ncccc1-c1cc(Cc2ccc(Oc3cccc(F)c3)nc2)no1 [Example 71, 3-(3-(6-(3-Fluoro-phenoxy)-pyridin-3-ylmethyl)-isoxazol-5-yl)-pyridin-2-ylamine] | 0.39 (≈ 1.08 µM) | 0.2 (≈ 0.552 µM)
Nc1ncccc1-c1cc(Cc2ccc(COc3ccc(F)cc3)nc2)no1 [Example 72, 3-(3-(6-(4-Fluoro-phenoxymethyl)-pyridin-3-ylmethyl)-isoxazol-5-yl)pyridin-2-ylamine] | 12.5 (≈ 33.2 µM) | 6.25 (≈ 16.6 µM)
Nc1ncccc1-c1cc(Cc2ccc(Oc3ccccc3F)nc2)no1 [Example 74, 3-(3-(6-(2-Fluoro-phenoxy)-pyridin-3-ylmethyl)-isoxazol-5-yl)-pyridin-2-ylamin] | 0.2 (≈ 0.552 µM) | 0.1 (≈ 0.276 µM)
Nc1ncccc1-c1cc(Cc2ccc(Oc3ccc(F)cc3)nc2)no1 [Example 75, 3-(3-(6-(4-Fluoro-phenoxy)-pyridin-3-ylmethyl)-isoxazol-5-yl)-pyridin-2-ylamine] | 0.2 (≈ 0.552 µM) | 0.78 (≈ 2.15 µM)
Nc1ncccc1-c1cc(Cc2ccc(Oc3cccnc3)cc2)no1 [Example 76, 3-(3-(4-(Pyridin-3-yloxy)-benzyl)-isoxazol-5-yl)-pyridin-2-ylamine] | 1.56 (≈ 4.53 µM) | 1.56 (≈ 4.53 µM)
Nc1ncccc1-c1cc(Cc2ccc(OCc3ccsc3)cc2)no1 [Example 77, 3-(3-(4-(Thiophen-3-ylmethoxy)-benzyl)-isoxazol-5-yl)-pyridin-2-ylamine] | 0.39 (≈ 1.07 µM) | 0.2 (≈ 0.55 µM)
Nc1ncccc1-c1cc(Cc2ccc(OC3CCCC3)cc2)no1 [Example 78, 3-(3-(4-Cyclopentyloxy-benzyl)-isoxazol-5-yl)-pyridin-2-ylamine] | 1.56 (≈ 4.65 µM) | 0.78 (≈ 2.33 µM)
Nc1ncccc1-c1cc(Cc2ccc(OC3CCCCC3)cc2)no1 [Example 79, 3-(3-(4-Cyclohexyloxy-benzyl)-isoxazol-5-yl)-pyridin-2-ylamine] | 6.25 (≈ 17.9 µM) | 1.56 (≈ 4.46 µM)
Nc1ncccc1-c1cc(Cc2ccc(CCc3ccco3)cc2)no1 [Example 80, 3-(3-(4-(2-Furan-2-yl-ethyl)-benzyl)-isoxazol-5-yl)-pyridin-2-ylamine] | 0.78 (≈ 2.26 µM) | 0.2 (≈ 0.579 µM)
Nc1ncccc1-c1cc(Cc2ccc(Oc3cccc(F)c3)cc2)no1 [Example 81, 3-(3-(4-(3-Fluoro-phenoxy)-benzyl)-isoxazol-5-yl)-pyridin-2-ylamine] | 0.39 (≈ 1.08 µM) | 0.2 (≈ 0.553 µM)
Nc1ncccc1-c1cc(Cc2ccc(CCC3CCCO3)cc2)no1 (centres unmarked) [Example 82, 3-(3-(4-(2-(Tetrahydrofuran-2-yl)-ethyl)-benzyl)-isoxazol-5-yl)-pyridin-2-ylamine] | 0.39 (≈ 1.12 µM) | 0.2 (≈ 0.572 µM)
Nc1ncccc1-c1cc(Cc2ccc(Oc3ccccc3F)cc2)no1 [Example 83] | 0.2 (≈ 0.553 µM) | 0.2 (≈ 0.553 µM)
Nc1ncccc1-c1cc(Cc2cccc(-c3ccccn3)c2)no1 [Example 84, 3-(3-(3-Pyridin-2-yl-benzyl)-isoxazol-5-yl)-pyridin-2-ylamine] | > 25 | 3.13 (≈ 9.53 µM)
Nc1ncccc1-c1cc(Cc2cccc(-c3ccccc3)c2)no1 [Example 85, 3-(3-Biphenyl-3-ylmethyl-isoxazol-5-yl)-pyridin-2-ylamine] | 3.13 (≈ 9.56 µM) | 1.56 (≈ 4.77 µM)
Nc1ncccc1-c1cc(Cc2ccc(COc3ccccc3)cc2)no1 [Example 86, 3-(3-(4-Phenoxymethyl-benzyl)-isoxazol-5-yl)-pyridin-2-ylamine] | 0.2 (≈ 0.56 µM) | 0.05 (≈ 0.14 µM)
Nc1ncccc1-c1cc(Cc2ccc(OCc3ccccn3)c(F)c2)no1 [Example 87, 3-(3-(3-Fluoro-4-(pyridin-2-ylmethoxy)-benzyl)-isoxazol-5-yl)-pyridin-2-ylamine] | 0.78 (≈ 2.07 µM) | 0.2 (≈ 0.531 µM)

Compound | MIC [1] [µg/mL] | MIC [2] [µg/mL]
Nc1ncccc1-c1cc(Cc2ccc(OCc3nccs3)cc2)no1 [Example 88, 3-(3-(4-(Thiazol-2-ylmethoxy)-benzyl)-isoxazol-5-yl)-pyridin-2-ylamine] | 0.2 (≈ 0.549 µM) | 0.2 (≈ 0.549 µM)
Nc1ncccc1-c1cc(Cc2ccc(OCc3ccc(F)c(F)c3)nc2)no1 [Example 89, 3-(3-(6-(3,4-Difluoro-benzyloxy)-pyridin-3-ylmethyl)-isoxazol-5-yl)-pyridin-2-ylamine] | 0.2 (≈ 0.507 µM) | 0.39 (≈ 0.989 µM)
Nc1ncccc1-c1cc(Cc2ccc(OCc3ccc(F)cc3F)nc2)no1 [Example 90, 3-(3-(6-(2,4-Difluoro-benzyloxy)-pyridin-3-ylmethyl)-isoxazol-5-yl)-pyridin-2-ylamine] | 0.39 (≈ 0.989 µM) | 1.56 (≈ 3.96 µM)
Nc1ncccc1-c1cc(Cc2ccc(Oc3ccc(F)cc3)s2)no1 [Example 91, 3-(3-(5-(4-Fluoro-phenoxy)-thiophen-2-ylmethyl)-isoxazol-5-yl)-pyridin-2-ylamine] | 0.1 (≈ 0.272 µM) | 0.2 (≈ 0.544 µM)
Cc1ccc(Cc2ccc(Cc3cc(-c4cccnc4N)on3)s2)cc1 [Example 92, 3-(3-(5-(4-Methyl-benzyl)-thiophen-2-ylmethyl)-isoxazol-5-yl)-pyridin-2-ylamine] | 0.39 (≈ 1.08 µM) | 0.39 (≈ 1.08 µM)
Nc1ncccc1-c1cc(Cc2ccc(CCc3ccccn3)cc2)no1 [Example 93, 3-(3-(4-(2-Pyridin-2-yl-ethyl)-benzyl)-isoxazol-5-yl)-pyridin-2-ylamine] | 1.56 (≈ 4.38 µM) | 0.2 (≈ 0.561 µM)
Nc1ncccc1-c1cc(Cc2ccc(OCc3ccc(F)cn3)c(F)c2)no1 [Example 94, 3-(3-(3-Fluoro-4-(5-fluoro-pyridin-2-ylmethoxy)-benzyl)-isoxazol-5-yl)pyridin-2-ylamine] | 0.39 (≈ 0.989 µM) | 0.78 (≈ 1.98 µM)
Nc1ncccc1-c1cc(Cc2ccc(OCc3ccccn3)cc2F)no1 [Example 95, 3-(3-(2-Fluoro-4-(pyridin-2-ylmethoxy)-benzyl)-isoxazol-5-yl)-pyridin-2-ylamine] | 1.56 (≈ 4.14 µM) | 0.39 (≈ 1.04 µM)
Nc1ncccc1-c1cc(Cc2ccc(OCc3ccc(F)cn3)cc2F)no1 [Example 96, 3-(3-(2-Fluoro-4-(5-fluoro-pyridin-2-ylmethoxy)-benzyl)-isoxazol-5-yl)pyridin-2-ylamine] | 0.78 (≈ 1.98 µM) | 3.13 (≈ 7.94 µM)
Nc1ncccc1-c1cc(Cc2ccc(Sc3ccccc3)nc2)no1 [Example 97, 3-(3-(6-Phenylsulfanyl-pyridin-3-ylmethyl)-isoxazol-5-yl)-pyridin-2-ylamine] | 0.2 (≈ 0.555 µM) | 0.39 (≈ 1.08 µM)
COc1cccc(COc2ccc(Cc3cc(-c4cccnc4N)on3)cc2)c1 [Example 98, 3-(3-(4-(3-Methoxy-benzyloxy)-benzyl)-isoxazol-5-yl)-pyridin-2-ylamine] | 0.39 (≈ 1.01 µM) | 0.39 (≈ 1.01 µM)
COc1cccc(COc2ccc(Cc3cc(-c4cccnc4N)on3)cc2)n1 [Example 99, 3-(3-(4-(6-Methoxy-pyridin-2-ylmethoxy)-benzyl)-isoxazol-5-yl)-pyridin-2-ylamine] | 0.78 (≈ 2.01 µM) | 3.13 (≈ 8.06 µM)
Nc1ncccc1-c1cc(Cc2ccc(Oc3cccnc3)nc2)no1 [Example 100, 3-(3-(6-(Pyridin-3-yloxy)-pyridin-3-ylmethyl)-isoxazol-5-yl)-pyrindin-2-ylamine] | 6.25 (≈ 18.1 µM) | 3.13 (≈ 9.06 µM)
Cc1ccc(COc2ccc(Cc3cc(-c4ccc(N)nc4N)on3)cc2)nc1 [Example 101] | 1.56 (≈ 4.03 µM) | 1.56 (≈ 4.03 µM)
Cc1ccc(OCc2ccc(Cc3cc(-c4ccc(N)nc4N)on3)cc2)nc1 [Example 103, 3-(3-(4-(5-Methyl-pyridin-2-yloxymethyl)-benzyl)-isoxazol-5-yl)-pyridin-2,6-diamine] | 0.78 (≈ 2.01 µM) | 1.56 (≈ 4.03 µM)
